# Measurements: patent publication US9714260B2, “Asymmetrical Si rhodamine and rhodol synthesis” (THE UNIVERSITY OF TOKYO, priority 2013, dated 2017)
# What was measured:
# [1] = in water; cited from earlier work
# [2] = Optical characteristics / pH profile of O-Me-Si-Rhodol (Compound 8); format: physicochemical
# Description: The pH profile of the absorbance and fluorescence spectra of O-Me-Si-Rhodol (Compound 8) was examined. Measurement was carried out at various pH levels in 0.1M sodium phosphate solution containing 10% DMSO. The excitation wavelength was 503 nm.
# rat liver microsomes = experiment: In vitro experiment using rat liver microsomes (hypoxia vs normal oxygen); format: biochemical; conditions: 1 μM compound, 226 μg rat liver microsomes, 50 μM NADPH; ex 640 nm, em 660 nm
# Description: The excitation wavelength was 640 nm and the fluorescence wavelength was 660 nm. In FIG. 26, Hyp is the measurement result for hypoxia and Nor is the measurement result for normal oxygen level.
# [3] = Optical characteristics of dyes in phosphate buffered saline of pH 7.4; format: physicochemical
# [4] = Absorbance and fluorescence of Compound 6 in various solvents; format: physicochemical
# Description: Next, the absorbance and fluorescence spectra of Ac-IndoSiR (Compound 6) in various solvents were measured. […] The excitation wavelength was 540 nm. The maximum absorbance fluorescence wavelength, molar absorbance coefficient, and fluorescence quantum yield of Compound 6 in various solvents are shown in Table 5. The fluorescence quantum yield (ΦFl=0.44; determined using an absolute fluorescence quantum yield measurement device) of Compound 6 in chloroform was used as the fluorescence reference to determine the fluorescence quantum yield in various solvents.
# [5] = Optical characteristics of Compound 5 in pH 7.4 sodium phosphate; format: physicochemical; conditions: 0.1 sodium phosphate pH 7.4, 0.3% DMSO
# Description: The fluorescence wavelength was 665 nm and the wavelength of the excitation light was 637 nm. The measurement was carried out in an aqueous solution of 0.1 sodium phosphate having a pH 7.4 and containing 0.3% DMSO. Cy 5.5 (ΦFl=0.23) in water was used as the fluorescence reference to determine the fluorescence quantum yield.
# [6] = Fluorescence quantum yield of Compound 5 in various solvents; format: physicochemical
# [7] = Optical characteristics / pH profile of Si-Rhodol (Compound 7); format: physicochemical
# Description: The pH profile of the absorbance and fluorescence spectra of Si-Rhodol (Compound 7) was examined. Measurement was carried out at various pH in 0.1M sodium phosphate solution containing 1% DMSO. The excitation wavelengths were 507 nm (FIG. 13) and 584 nm (FIG. 14).
# [8] = Absorbance and fluorescence profiles of Compounds 1-4 in pH 7.4 sodium phosphate; format: physicochemical; conditions: pH 7.4 sodium phosphate buffer solution; for Absmax / Emmax / ε: 0.1% DMSO; for Φfl: cresyl violet in methanol as fluorescence reference
# Description: Absorbance and fluorescence profiles of 2-MeSiR620 (Compound 1) obtained in step (f) and 2-MeSiR620-a1 (Compound 2) obtained in step (i) were measured. Measurements were carried out in an aqueous solution of 0.1M sodium phosphate having a pH 7.4 and containing 0.1% DMSO. The wavelength of the excitation light in the fluorescence profile measurement was 620 nm for 2-MeSiR620 and 635 nm for 2-MeSiR620-a1.
# The absorbance and fluorescence spectra of 2-MeSiR630 (Compound 3) synthesized in step (b) and 2-MeSiR630-a1 (Compound 4) synthesized in step (d) were measured. Measurements were carried out in an aqueous solution of 0.1 sodium phosphate having a pH 7.4 and containing 0.1% DMSO. The excitation light in the fluorescence spectrum measurement was 633 nm for 2-MeSiR630 and 648 nm for 2-MeSiR630-a1.
# [9] = Optical characteristics / pH profile of N-AcSi-Rhodol (Compound 9); format: physicochemical
# Description: Measurement was carried out at various pH in 0.1M sodium phosphate solution containing 10% DMSO. The excitation wavelength was 503 nm.
# [10] = Optical characteristics of Compound 10 and predicted compound after reaction with active oxygen; format: physicochemical; conditions: 1 μM in PBS (pH 7.4), 0.1% DMF
# Description: The absorbance and fluorescence spectra (left side of FIG. 19) of 1 μM of compound 10 in PBS (pH 7.4) containing 0.1% DMF as a cosolvent, the absorbance and fluorescence spectra (right side of FIG. 19) of the compound predicted to be generated following a reaction of compound 10 and 1 μM active oxygen, and the optical characteristics of each compound were measured (Table 9).
# [11] = Reactivity and selectivity of Compound 10 toward active-oxygen species
# Description: Next, an analysis was carried out using the HPLC of a reaction induced by an active-oxygen-species. […] A sample was subjected to HPLC linear gradient elution (eluate: A/B=60/40—10 minutes—0/100; flow rate=1.0 mL/minute). Next, the selectivity of active-oxygen species of compound 10 was examined. The conditions of various active-oxygen species were as follows. H2O2: […] ONOO^−: […] O2^−: […] Hydroxy radical: H2O2 (final 1 mM) and FeClO4 (final 100 μM) were added.
# HL60 cells = experiment: Cell-imaging experiment using HL60 cells; format: cell-based; conditions: 1 μM probe, 1 mM H2O2 stimulation, 45 minutes
# Description: HL60 cells were cultured. […] The fluorescence image was observed thereafter.
# [12] = in methanol; cited from earlier work
# [13] = 0.1M sodium phosphate, 10% DMSO
# [14] = 0.1M sodium phosphate, 10% DMSO, excitation 503 nm
molecule,measurement,setting,value
CCN1\C(=C/C=C/C=C/C2=[N+](CCCCCC(=O)O)c3ccc4c(S(=O)(=O)O)cc(S(=O)(=O)O)cc4c3C2(C)C)C(C)(C)c2c1ccc1c(S(=O)(=O)[O-])cc(S(=O)(=O)O)cc21 [Cy 5.5],ΦFl of fluorescence reference,[1],0.23
"COc1ccc2c(c1)[Si](C)(C)C1=CC(=N)C=CC1=C2c1ccccc1C [Compound 8, O-MeSi-Rhodol]",λabs,[2]; [13],503 nm
same,λem,[2]; [14],580 nm
same,λabs,"[2]; 0.1M sodium phosphate, 10% DMSO, listed as O-MeSi-Rhodol",~500 nm
same,absorption maximum (FIG. 16),[2]; FIG. 16,~600 nm
same,ΦFL,[2]; pH: 3.0,0.24 (pH: 3.0)
same,ΦFL,[2]; pH: 7.4,0.18 (pH: 7.4)
"Cc1ccccc1C1=c2cc3c(cc2[Si](C)(C)c2cc(/N=N/c4ccc(N(C)C)cc4)ccc21)=[N+](C)CC3 [Compound 11, 2MeazoSiR650]",change in fluorescence intensity in a hypoxic environment,rat liver microsomes,dramatic increase in fluorescence intensity
same,Φn (absolute fluorescence quantum yield measured using integrating spheres),[3],<0.001
same,λabs. max,[3],590 nm
"CC(=O)Nc1ccc2c(c1)[Si](C)(C)c1cc3c(cc1=C2c1ccccc1C)CC[N+]=3C [Compound 6, Ac-IndoSiR]",Absmax,[4]; Acetone,532 nm
same,Emmax,[4]; Acetone,641 nm
same,ΦFl,[4]; Acetone,0.15
same,ε,[4]; Acetone,"27,000 M^−1cm^−1"
same,Absmax,[4]; Benzene,644 nm
same,Emmax,[4]; Benzene,665 nm
same,ΦFl,[4]; Benzene,0.26
same,ε,[4]; Benzene,"34,000 M^−1cm^−1"
same,Absmax,[4]; CH2Cl2,552 nm
same,Emmax,[4]; CH2Cl2,641 nm
same,ΦFl,[4]; CH2Cl2,0.27
same,ε,[4]; CH2Cl2,"33,000 M^−1cm^−1"
same,Absmax,[4]; CH3CN,529 nm
same,Emmax,[4]; CH3CN,636 nm
same,ΦFl,[4]; CH3CN,0.16
same,ε,[4]; CH3CN,"29,000 M^−1cm^−1"
same,Absmax,[4]; CHCl3,623 nm
same,Emmax,[4]; CHCl3,652 nm
same,ε,[4]; CHCl3,"36,000 M^−1cm^−1"
same,ΦFl,"[4]; CHCl3, absolute fluorescence quantum yield measurement device",0.44
same,Absmax,[4]; DMF,536 nm
same,Emmax,[4]; DMF,645 nm
same,ΦFl,[4]; DMF,0.19
same,ε,[4]; DMF,"9,000 M^−1cm^−1"
same,Absmax,[4]; DMSO,534 nm
same,Emmax,[4]; DMSO,651 nm
same,ΦFl,[4]; DMSO,0.12
same,ε,[4]; DMSO,"30,000 M^−1cm^−1"
same,Absmax,[4]; MeOH,526 nm
same,Emmax,[4]; MeOH,637 nm
same,ΦFl,[4]; MeOH,0.10
same,ε,[4]; MeOH,"27,000 M^−1cm^−1"
same,Absmax,[4]; NaPi buffer (pH 7.4),500 nm
same,Emmax,[4]; NaPi buffer (pH 7.4),630 nm
same,ΦFl,[4]; NaPi buffer (pH 7.4),0.06
same,ε,[4]; NaPi buffer (pH 7.4),"29,000 M^−1cm^−1"
same,Absmax,[4]; THF,559 nm
same,Emmax,[4]; THF,654 nm
same,ΦFl,[4]; THF,0.18
same,ε,[4]; THF,"21,000 M^−1cm^−1"
same,Absmax,[4]; Toluene,644 nm
same,Emmax,[4]; Toluene,665 nm
same,ΦFl,[4]; Toluene,0.31
same,ε,[4]; Toluene,"32,000 M^−1cm^−1"
"Cc1cccc(C)c1C1=c2cc3c(cc2[Si](C)(C)c2cc(/N=N/c4ccc(N(C)C)cc4)ccc21)=[N+](C)CC3 [Compound 14, diMeazoSiR650]",change in fluorescence intensity in a hypoxic environment,rat liver microsomes,dramatic increase in fluorescence intensity
same,Φn (absolute fluorescence quantum yield measured using integrating spheres),[3],0.002
same,λabs. max,[3],587 nm
"Cc1ccccc1C1=c2cc3c(cc2[Si](C)(C)c2cc(N)ccc21)=[N+](C)CC3 [Compound 5, 2MeIndoSiR]",Φn (absolute fluorescence quantum yield measured using integrating spheres),[3],0.14
same,λabs. max,[3],637 nm
same,λfl. max,[3],664 nm
same,ε,[5],54000 M⁻¹ cm⁻¹
same,λem,[5],665 nm
same,λex,[5],641 nm
same,Φfl,[5]; Cy 5.5 in water as reference,0.18
same,Fluorescence quantum yield ΦF1,[6]; 20% FBS,0.36
same,Fluorescence quantum yield ΦF1,[6]; Acetone,0.39
same,Fluorescence quantum yield ΦF1,[6]; CH3CN,0.42
same,Fluorescence quantum yield ΦF1,[6]; CHCl3,0.89
same,Fluorescence quantum yield ΦF1,[6]; DMF,0.39
same,Fluorescence quantum yield ΦF1,[6]; DMSO,0.35
same,Fluorescence quantum yield ΦF1,[6]; FBS,0.35
same,Fluorescence quantum yield ΦF1,[6]; MeOH,0.46
"Cc1ccccc1C1=C2C=CC(=O)C=C2[Si](C)(C)c2cc(N)ccc21 [Compound 7, Si-Rhodol]",ε,"[7]; 0.1M sodium phosphate, 1% DMSO","40,000 M^−1cm^−1"
same,λem,"[7]; 0.1M sodium phosphate, 1% DMSO",605 nm
same,absorption maximum (FIG. 14),"[7]; FIG. 14, excitation wavelength 584 nm",~600 nm
same,Φfl,[7]; pH: 3.0,0.28 (pH: 3.0)
same,λabs,[7]; pH: 3.0,507 (pH: 3.0) nm
same,Φfl,[7]; pH: 7.4,0.56 (pH: 7.4)
same,λabs,[7]; pH: 7.4,584 (pH: 7.4) nm
same,λabs,"[7]; pH: 7.4, listed as Si-Rhodol",~580 nm
2-MeSiR620 [Compound 1],Absmax,[8],620 nm
same,Emmax,[8],638 nm
same,ε,[8],"96,000 M^−1cm^−1"
same,Φfl,[8],0.21
"Cc1ccccc1C1=C2C=CC(=[N+](C)C)C=C2[Si](C)(C)c2cc(N(C)CCCC(=O)O)ccc21 [Compound 4, 2-MeSiR630-a1]",Absmax,[8],648 nm
same,Emmax,[8],666 nm
same,ε,[8],"140,000 M^−1cm^−1"
same,Φfl,[8],0.30
"CNc1ccc2c(c1)[Si](C)(C)C1=CC(=[N+](C)C)C=CC1=C2c1ccccc1C [Compound 3, 2-MeSiR630]",Absmax,[8],633 nm
same,Emmax,[8],649 nm
same,ε,[8],"120,000 M^−1cm^−1"
same,Φfl,[8],0.11
"Cc1cccc(C)c1C1=c2cc3c(cc2[Si](C)(C)c2cc(N)ccc21)=[N+](C)CC3 [Compound 13, diMeSiR650]",Φn (absolute fluorescence quantum yield measured using integrating spheres),[3],0.15
same,λabs. max,[3],637 nm
same,λfl. max,[3],670 nm
"CC(=O)Nc1ccc2c(c1)[Si](C)(C)C1=CC(=O)C=CC1=C2c1ccccc1C [Compound 9, N-AcSi-Rhodol]",λabs,[9]; [13],455 nm
same,λem,[9]; [14],590 nm
same,λabs,"[9]; 0.1M sodium phosphate, 10% DMSO, listed as N-AcSi-Rhodol",~450 nm
same,ΦFL,[9]; pH: 7.4,0.17 (pH: 7.4)
same,ε,[9]; pH: 10.0,7000 (pH: 10.0) M^−1cm^−1
"CC/[N+](=C1\C=CC2=C(c3ccccc3C)c3cc4c(cc3[Si](C)(C)C2=C1)N(C)CC4)c1ccc(O)cc1 [Compound 10, 2MeIndo-N-ethyl-phenol-SiR]",Absmax,[10],670 nm
same,selectivity of active-oxygen species,"[11]; H2O2, −OCl, ONOO−, O2−, hydroxy radical",reacted selectively with ^−OCl and ONOO^−
same,"reaction with −OCl (HPLC, ESI-MS analysis)",[11]; −OCl,produce the predicted reactant
same,increase in fluorescence after reaction with active-oxygen species,[11]; −OCl and ONOO−,100 times
same,increase in fluorescence inside cells relative to no stimulation,HL60 cells,about four
Cresyl violet,Φfl of fluorescence reference,[12],^bCresyl violet in methanol (Φfl = 0.54) was used as the fluorescence reference
